Data published in PMC7246635, “Structure–Activity Relationship of RGD-Containing Cyclic Octapeptide and αvβ3 Integrin Allows for Rapid Identification of a New Peptide Antagonist” (International Journal of Molecular Sciences, 2020).
Like-named read-outs stand apart in the source and are kept apart here. Bridge positions count the residues as written; N and C are the ends. Square brackets hold non-standard residues; d marks the D form. Ends that are not written are not given here. Peptide text beside a SMILES is read from it.

Legend:
αvβ3 integrin [1] = target: T1, αvβ3 integrin (Homo sapiens, UniProt P05106+P06756); conditions: cited from earlier work
T1 construct: expressed in transfected cells; host or cells: K562 human leukemia cells (ATCC) transfected with αvβ3 integrin
Text: Targeting tumor cells or tumor vasculature by RGD-based strategies is a promising approach for delivering anticancer drugs or contrast agents for cancer therapy and diagnosis. RGD-based strategies include RGD peptide or peptidomimetic drugs, RGD-conjugates, and the grafting of the RGD peptide or peptidomimetic, as targeting ligand, at the surfa ... || (+ 4 further places)

αvβ3 integrin [2] = target: T1, αvβ3 integrin; test: Competitive binding assay by flow cytometry: competition with 1 μM biotinylated LXW7 binding to αvβ3-K562 cells
Description: To further verify our in silico screening results, we examined the binding of new LXW-analogous peptides to αvβ3 integrin in αvβ3-K562 cells. LXZ2 with DNTL as the X7 residue (Figure 6 left) was arbitrarily chosen and tested through flow cytometry for competing with 1 μM biotinylated LXW7 binding to αvβ3 integrin. […] The IC50 of the peptide inhibiting biotinylated LXW7 binding with K562/αvβ3+ cells was determined (Figure 6 right).
Figure 6 (A) Chemical structure of LXZ2; (B) Competitive binding assay. […] Positive control (cyan), cells were treated with 1μM biotinylated LXW7 and streptavidin-PE successively, and measured with flow cytometry. Negative control (red) represents cells without treatment of biotinylated LXW7. (C) IC50 measurement of LXW7 and LXZ2. The IC50s were determined with competitive binding assay by using a series of concentrations of LXW7 or LXZ2 competing with 1 μM biotinylated LXW7 binding to αvβ3-K562 cells. TEXT PRINTED IN THE PICTURE: (C) LXW7: IC50(μM): 1.53 | (C) LXZ2: IC50(μM): 0.31
The human leukemia cancer cells (K562, ATCC, Manassas, VA, USA) transfected with αvβ3-integrin were grown in the RPMI1640 medium and used for the assay as previously described. […] The samples were washed with 1 mL PBS containing 1% FBS for three times, then incubated with a 1:500 dilution of streptavidin-PE (1 mg/mL) for 30 min on ice followed by a single wash with 1 mL of PBS containing 1% FBS. Finally, the samples were analyzed via flow cytometry (Coulter XL-MCL). To measure the half-maximal inhibitory concentration (IC50) of the peptides, various diluted peptide solutions were mixed with 1.0 μM biotinylated LXW7, then incubated with cells, and followed by streptavidin-PE incubation. The samples were run through flow cytometer and Mean Fluorescence Intensity was decided for each individual sample. The IC50s were calculated from each sample based on the readings.

αvβ3 integrin [3] = conditions: cited from earlier work
Text: In our current study, 20 new LXW analogs were predicted via in silico screening with a high binding affinity to αvβ3 integrin. […] These X7 amino acids can be classified into two groups according to their side-chain structures—cyclic (total 13) and non-cyclic (aliphatic, total 7). […] Among the cyclic amino acids, the aromatic (mainly polycyclic excepted DPH ...

αvβ5 = conditions: integrin expressed on K562 cells; cited from earlier work
Text: (§1) Structure–activity relationship between LXW peptides and αvβ3 LXW analogs are a new category of RGD-containing cyclopeptides that binds specifically to αvβ3 integrin [7, 8]. The LXW analogs were designed and screened using OBOC combinatorial technology. Unlike other RGD cyclopeptide antagonists (i.e., cilengitide), LXW analogs are extended circular structures with a disulfide bond formed between two cysteines in the peptide sequence (cGRGDdXc). D-configuration of two cysteines in these analogs is essential for the antagonistic activity, which can force the cyclopeptide to adopt ...

αIIbβ3 = conditions: integrin expressed on K562 cells; cited from earlier work
Text: as §1

αvβ3 = conditions: integrin expressed on K562 cells; cited from earlier work
Text: as §1

α5β1 = conditions: integrin expressed on K562 cells; cited from earlier work
Text: as §1

[4] = concentration of peptide required for inhibition of 0.5 µmoL/L biotinylated LXW7 binding to K562/αvβ3+ cells by half, Table 1
[5] = known IC50s from previous in vitro screening, binding to αvβ3 integrin, Table 3
[6] = series of peptide concentrations competing with 1 μM biotinylated LXW7 binding to αvβ3-K562 cells, flow cytometry, streptavidin-PE, PBS, 10% FBS, 1 mM MnCl2, 30 min on ice, Figure 6C, read-out: IC50

In the case of “CGRGDdvC-NH2 (disulfide) (CGRGD[dD][dV]C-NH2; disulfide 1-8; N-terminus assumed; SMILES CC(C)[C@H]1NC(=O)[C@@H](CC(=O)O)NC(=O)[C@H](CC(=O)O)NC(=O)CNC(=O)[C@H](CCCNC(=N)N)NC(=O)CNC(=O)[C@@H](N)CSSC[C@@H](C(N)=O)NC1=O) [LXW11, LXW7 isomer CGRGDdvC-NH2 with two L-cysteines]”, the IC50 (αvβ3 integrin [1]; [4]) is given as > 20000 nM and the IC50 (αvβ3 integrin [1]; [5]) is given as > 20000 nM.

In the case of CC(C)[C@H]1NC(=O)[C@@H](CC(=O)O)NC(=O)[C@H](CC(=O)O)NC(=O)CNC(=O)[C@H](CCCNC(=N)N)NC(=O)CNC(=O)[C@H](N)CSSC[C@H](C(N)=O)NC1=O [LXW7] (H-[dC]GRGD[dD][dV][dC]-NH2; disulfide 1-8), the IC50 (αvβ3 integrin [2]; [6]) is reported as 1530 nM.

In the case of cilengitide, the IC50 (αvβ3 integrin [3]) is given as 250 nM.

For “cGRGDd-DNal1-c-NH2 (disulfide) [LXW64, cyclic octapeptide cGRGDd-DNal1-c-NH2 with 3-(1-naphthyl)-D-alanine at X7]”, the “higher binding affinity than LXW7” value (αvβ3 integrin [1]; binding affinity to αvβ3 relative to LXW7) is given as 6 fold, the IC50 (αvβ3 integrin [1]; [4]) is given as 70 nM and the IC50 (αvβ3 integrin [1]; [5]) is given as 70 nM. The “binding to αvβ5” value (αvβ5) was “weak or no binding”, the “binding to αIIbβ3” value (αIIbβ3) was “weak or no binding” and the “binding with αvβ3” value (αvβ3) was “significant positive binding”. The “binding to α5β1” value (α5β1) was “weak or no binding”.

With N=C(N)NCCC[C@@H]1NC(=O)CNC(=O)[C@H](N)CSSC[C@H](C(N)=O)NC(=O)[C@@H](Cc2c3ccccc3cc3ccccc23)NC(=O)[C@@H](CC(=O)O)NC(=O)[C@H](CC(=O)O)NC(=O)CNC1=O [LXZ2] the “binding affinity compared with LXW7 in competitive binding” value (αvβ3 integrin [2]; 5 μM peptide competes with 1 μM biotinylated LXW7 binding to αvβ3-K562 cells, flow cytometry, Figure 6B) was “stronger binding affinity than the first lead—LXW7”, the IC50 (αvβ3 integrin [2]; converted, referred to LXW7 in Table 3, read-out: converted IC50) was 90 nM and the IC50 (αvβ3 integrin [2]; [6]) was 310 nM.

In the case of “LXW26: LXW analog with D-Ile as X amino acid (CGRGDDIC; cyclic via D-Cys1-D-Cys8 disulfide; D-Cys1, D-Asp6, D-Ile7, D-Cys8; C-terminal amide (template cGRGDdXc-NH2, X = D-Ile))”, the IC50 (αvβ3 integrin [1]; [5]) is listed as 1840 nM.
